Measurements reported in PMC4674309 (Molecular cancer therapeutics, 2015).

Target: IGF-IR (Homo sapiens, UniProt P08069)
Test: Western blot of IGF-IR autophosphorylation
Format: cell-based

Chain of IGF-IR (P08069 31-736): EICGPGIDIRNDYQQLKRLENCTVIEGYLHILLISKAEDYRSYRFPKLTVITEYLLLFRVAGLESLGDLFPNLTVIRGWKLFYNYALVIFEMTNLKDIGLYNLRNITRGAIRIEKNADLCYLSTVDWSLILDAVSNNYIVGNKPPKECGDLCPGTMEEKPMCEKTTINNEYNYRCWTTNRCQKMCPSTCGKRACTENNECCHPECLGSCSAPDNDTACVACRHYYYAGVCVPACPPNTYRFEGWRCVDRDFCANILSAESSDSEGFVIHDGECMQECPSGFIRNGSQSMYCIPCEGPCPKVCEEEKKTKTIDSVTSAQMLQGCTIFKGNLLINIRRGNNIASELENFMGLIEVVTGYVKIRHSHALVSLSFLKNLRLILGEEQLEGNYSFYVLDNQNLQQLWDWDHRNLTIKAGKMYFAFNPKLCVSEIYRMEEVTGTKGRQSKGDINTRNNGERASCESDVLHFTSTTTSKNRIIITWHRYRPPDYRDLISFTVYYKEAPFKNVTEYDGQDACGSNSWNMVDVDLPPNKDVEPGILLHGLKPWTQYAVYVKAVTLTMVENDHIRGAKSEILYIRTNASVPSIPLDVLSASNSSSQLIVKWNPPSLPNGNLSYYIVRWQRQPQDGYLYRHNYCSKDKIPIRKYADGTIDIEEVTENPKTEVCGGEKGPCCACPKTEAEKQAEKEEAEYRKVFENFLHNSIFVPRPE
Chain of IGF-IR (P08069 741-1367): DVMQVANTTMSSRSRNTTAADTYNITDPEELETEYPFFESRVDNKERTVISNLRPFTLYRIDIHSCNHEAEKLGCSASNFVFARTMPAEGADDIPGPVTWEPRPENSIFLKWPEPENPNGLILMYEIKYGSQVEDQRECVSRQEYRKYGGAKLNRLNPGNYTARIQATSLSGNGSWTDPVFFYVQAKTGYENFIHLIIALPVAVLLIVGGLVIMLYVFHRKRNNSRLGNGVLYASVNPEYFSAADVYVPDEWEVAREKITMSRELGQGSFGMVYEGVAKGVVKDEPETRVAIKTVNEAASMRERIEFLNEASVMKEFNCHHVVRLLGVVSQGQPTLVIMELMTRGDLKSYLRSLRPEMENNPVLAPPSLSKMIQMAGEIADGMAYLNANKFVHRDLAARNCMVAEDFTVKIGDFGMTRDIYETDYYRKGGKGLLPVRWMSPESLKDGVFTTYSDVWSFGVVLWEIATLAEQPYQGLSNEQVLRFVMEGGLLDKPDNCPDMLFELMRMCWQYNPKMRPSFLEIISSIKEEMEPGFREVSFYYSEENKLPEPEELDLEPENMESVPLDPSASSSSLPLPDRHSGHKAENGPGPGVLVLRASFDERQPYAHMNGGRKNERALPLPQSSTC

IC50: < 2 nM
Structure (SMILES): Cc1ccsc1C(=O)Nc1cc(CN2CCN(C(=O)CO)CC2)ccc1/C=C/c1n[nH]c2ccccc12 [KW-2450]
